We go through three molecules from US20110288134A1, “COMPOSITION AND METHOD FOR TREATING FIBROSIS” (Pacific Therapeutics Ltd., priority 2008, published 2011).

For orientation: inhibition means the relative decrease from the control value, in per cent.

The structures appear in SMILES notation. Read-outs that look alike come from different tables or passages of the source.

Data set [1] has as its system TGF-β1 induced ECM accumulation in HFL1 human lung fibroblast cells. Briefly: TGF-β1 induced monolayer extracellular matrix (ECM) accumulation assay (Sirius Red collagen) in fibronectin-coated plates. The class given is cell-based. The settings on record: for inhibition at 300 µM: compound alone at 300 μM (FIG. 1). From the text: The composition comprising tranilast and NAC or composition containing pirfenidone and NAC was investigated for their antifibrotic activity by employing in vitro collagen synthesis assay: the TGF-β1 induced monolayer extracellular matrix (ECM) accumulation assay in fibronectin-coated plates.
Method Human lung fibroblast cell line, HFL1, was purchased from American Type Culture Collection. Cells were maintained in FK12 medium supplemented with 10% FBS and antibiotics. Cells were trypsinized and seeded into 96-well fibronectin-coated plate as 5×10^4cells/well and cultured overnight to achieve 60-80% confluence. After a washing with PBS and serum-free medium, fresh medium supplemented with 40 pM of TGF-β1 was added in each test well. Different concentrations of tranilast, pirfenidone, NAC and their combinations were also added to some test wells. The plates were left at 37° C. in a CO2 incubator for 72 h. After removing medium cells were fixed to the plate with 0.5% glutaraldehyde for 30 minutes at room temperature. Cells were washed and treated with 0.5M acetic acid for 30 minutes. After washing cells with distilled water 250 µl of Sirius Red was added for 2 hours. Dye was removed and cells were washed with distilled water. Sirius Red was eluted with 200 ul 0.1 N sodium hydroxide, and the optical density at 540 nm was determined using a Molecular Dynamics spectrophotometer.

For data set [2] the following is noted: cited from earlier work.
The conditions of data set [3]: doses of up to 600 mg/day for at least 3 months, many years of clinical use; cited from earlier work.
Setting [4] is: HFL1 cells, 40 pM TGF-β1, 72 h, compound alone at 10 μM (FIG. 1).
Setting [5] is: Homo sapiens, HFL1 cells, 40 pM TGF-β1, 72 h, read-out: inhibition of TGF-β1 mediated ECM (collagen) accumulation.
The mark [6] stands for this setting: combination screen plate (FIG. 2A/3A), HFL1 cells, compound alone at 300 μM.

Turning to `CC(=O)N[C@@H](CS)C(=O)O` [NAC, N-acetyl-cysteine], the “inhibition of TGF-β1 mediated ECM accumulation” value in data set [1] (HFL1 cells, 40 pM TGF-β1, 72 h, alone at 0.1 mM (FIG. 1C)) is given as “not effective”; in data set [1] (HFL1 cells, 40 pM TGF-β1, 72 h, alone at 0.5 mM (FIG. 1C)) it was “not effective”; in data set [1] (HFL1 cells, 40 pM TGF-β1, 72 h, alone at 1 mM (FIG. 1C)), “not effective”. Also, the “suppression of TGF-β1 mediated ECM accumulation” value in data set [1] (HFL1 cells, 40 pM TGF-β1, 72 h, alone at 2 mM (FIG. 1C)) is given as 32±14%; in data set [1] (HFL1 cells, 40 pM TGF-β1, 72 h, alone at 5 mM (FIG. 1C)) it was 45±17%; in data set [1] (HFL1 cells, 40 pM TGF-β1, 72 h, alone at 10 mM (FIG. 1C)) it was 70.5±18%. The inhibition at 20000 µM in data set [1] (Homo sapiens, HFL1 cells, 40 pM TGF-β1, 72 h, alone at 20 mM (FIG. 1C), read-out: inhibition of TGF-β1 mediated ECM accumulation) came out at 100%. The “suppression of TGF-β1 mediated collagen accumulation” value in data set [1] (screen plate FIG. 2A, compound alone at 2 mM) was found to be 25%.

Consider `Cc1ccc(=O)n(-c2ccccc2)c1` [pirfenidone, 5-methyl-L-phenyl-2-(1H)-pyridone], for which the “inhibition of TGF-β1 mediated ECM (collagen) accumulation” value in data set [1] (setting [4]) was “not effective”; in data set [1] (HFL1 cells, 40 pM TGF-β1, 72 h, compound alone at 100 μM (FIG. 1)), “not effective”. The inhibition at 1000 µM in data set [1] (Homo sapiens, HFL1, screen plate FIG. 3A, compound alone at 1000 μM, read-out: anti-fibrosis activity (inhibition of TGF-β1 induced collagen accumulation)) was 100%; in data set [1] (Homo sapiens, HFL1 cells, 40 pM TGF-β1, 72 h, compound alone at 1000 μM (FIG. 1), read-out: inhibition of TGF-β1 mediated ECM (collagen) accumulation), roughly 100%. Moreover, the inhibition at 300 µM in data set [1] (setting [5]) amounted to 22 ± 7%. Besides, in data set [1] (Homo sapiens, HFL1 cells, 40 pM TGF-β1, 72 h, compound alone at 500 μM (FIG. 1), read-out: inhibition of TGF-β1 mediated ECM (collagen) accumulation), the inhibition at 500 µM was 33 ± 8%. In data set [1] (setting [6]), the “suppression of TGF-β1 mediated collagen accumulation” value stood at 18%. The plasma concentration in data set [2] (usual therapeutic dose of 1200 mg/day (Shi, Wu et al. 2007)) is 100 to 1000 µM.

Regarding `COc1ccc(/C=C/C(=O)Nc2ccccc2C(=O)O)cc1OC` [tranilast, n-[3,4-dimethoxycinnamoyl] anthranilic acid], the “shift in the potency of tranilast” value in data set [1] (50 μM tranilast with 2 mM NAC (88%) versus tranilast alone (11%)) turned out to be 8 fold. Further, the “inhibition of TGF-β1 mediated ECM (collagen) accumulation” value in data set [1] (setting [4]) was “no significant inhibition”; in data set [1] (HFL1 cells, 40 pM TGF-β1, 72 h, compound alone at 25 μM (FIG. 1)), “no significant inhibition”; in data set [1] (HFL1 cells, 40 pM TGF-β1, 72 h, compound alone at 50 μM (FIG. 1)), “no significant inhibition”. Further, the inhibition at 100 µM in data set [1] (Homo sapiens, HFL1 cells, 40 pM TGF-β1, 72 h, compound alone at 100 μM (FIG. 1), read-out: inhibition of TGF-β1 mediated ECM (collagen) accumulation) turned out to be 34 ± 11%. In data set [1] (setting [5]), the inhibition at 300 µM amounted to 100%. In addition, the “suppression of TGF-β1 mediated collagen accumulation” value stood at 100% in data set [1] (setting [6]) and 11% in data set [1] (screen plate FIG. 2A, compound alone at 50 μM). The plasma concentration in data set [2] (after oral administration of the usual therapeutic dose of 600 mg/day (Kusama et al. 1999)) was 30 to 300 µM. Also, the “clinical safety and tolerability” value in data set [3] was “safe and well tolerated”.
